Results: ChEMBL document CHEMBL5576054, “Lead compound profiling for small molecule inhibitors of the REV1-CT/RIR Translesion synthesis Protein-Protein interaction” (Bioorg Med Chem, 2024)
≈ marks a conversion by molar mass, not a printed value. Calls of active or inactive are those of the source. The calls are words filed in the database; no cut-off is given here.

How the values were obtained:
[1] = Metabolic stability in human liver microsomes assessed as half life at 1 uM incubated upto 60 mins by LC-MS/MS analysis; type: ADME, Microsome; settings: 1 h
[2] = Half life in CD-1 mouse at 1 mg/kg, iv by LC-MS/MS analysis; type: ADME, organism-based; settings: in vivo
[3] = Toxicity in BALB/c nude mouse assessed as animal death at 200 mg/kg, po qd measured for 3 days; type: organism-based; settings: in vivo, 72 h, time 3 day
[4] = Cmax in CD-1 mouse at 100 mg/kg, ip by LC-MS/MS analysis; type: ADME, organism-based; settings: in vivo
[5] = test system: SW1271; test: Synergistic inhibition of cell viability in human SW1271 cells at 20 uM incubated for 5 days in presence of Olaparib/Temozolomide by Cell Titer Glo assay; type: functional, cell-based; settings: time 5.0 day
[6] = test system: MEF; test: Inhibition of cologenic survival in mouse MEF cells at 10 uM incubated for 24 hrs followed by fresh media replacement without compound measured after 4 days by crystal violet staining based analysis; type: functional, cell-based
[7] = test system: SW1271; test: Synergistic inhibition of cell viability in human SW1271 cells with Rev1-/- at 20 uM incubated for 5 days in presence of Olaparib/Temozolomide by Cell Titer Glo assay; type: functional, cell-based; settings: time 5.0 day
[8] = AUC (infinity) in CD-1 mouse at 100 mg/kg, ip by LC-MS/MS analysis; type: ADME, organism-based; settings: in vivo
[9] = Metabolic stability in human liver microsomes assessed as intrinsic clearance at 1 uM incubated upto 60 mins by LC-MS/MS analysis; type: ADME, Microsome; settings: 1 h
[10] = test system: MEF; test: Synergistic inhibition of cologenic survival in mouse MEF cells with Rev1-/- at 10 uM incubated for 24 hrs followed by fresh media replacement without compound measured after 4 days in presence of cisplatin by crystal violet staining based analysis; type: functional, cell-based
[11] = MRT (infinity) in CD-1 mouse at 1 mg/kg, iv by LC-MS/MS analysis; type: ADME, organism-based; settings: in vivo
[12] = AUC (infinity) in CD-1 mouse at 1 mg/kg, iv by LC-MS/MS analysis; type: ADME, organism-based; settings: in vivo
[13] = Disruption of C-terminal REV-1/FAM-tagged Pol kappa RIR (unknown origin) interaction incubated for 1 hr by FP assay; set-up: species or system Homo sapiens
[14] = C0 in CD-1 mouse at 1 mg/kg, iv by LC-MS/MS analysis; type: ADME, organism-based; settings: in vivo
[15] = AUClast in CD-1 mouse at 1 mg/kg, iv by LC-MS/MS analysis; type: ADME, organism-based; settings: in vivo
[16] = Solubility of compound in PBS at pH 4; type: physicochemical; settings: buffer
[17] = Toxicity in BALB/c nude mouse assessed as general impairment at 30 to 100 mg/kg, po qd for 7 days; type: organism-based; settings: in vivo, 168 h, dose 30-100 mg/kg, time 7 day
[18] = target: T1, DNA repair protein REV1 (Homo sapiens, UniProt Q9UBZ9); test: Binding affinity to C-terminal human REV-1 assessed as dissociation constant incubated for 30 mins by MST assay
T1 sequence (Q9UBZ9 whole entry): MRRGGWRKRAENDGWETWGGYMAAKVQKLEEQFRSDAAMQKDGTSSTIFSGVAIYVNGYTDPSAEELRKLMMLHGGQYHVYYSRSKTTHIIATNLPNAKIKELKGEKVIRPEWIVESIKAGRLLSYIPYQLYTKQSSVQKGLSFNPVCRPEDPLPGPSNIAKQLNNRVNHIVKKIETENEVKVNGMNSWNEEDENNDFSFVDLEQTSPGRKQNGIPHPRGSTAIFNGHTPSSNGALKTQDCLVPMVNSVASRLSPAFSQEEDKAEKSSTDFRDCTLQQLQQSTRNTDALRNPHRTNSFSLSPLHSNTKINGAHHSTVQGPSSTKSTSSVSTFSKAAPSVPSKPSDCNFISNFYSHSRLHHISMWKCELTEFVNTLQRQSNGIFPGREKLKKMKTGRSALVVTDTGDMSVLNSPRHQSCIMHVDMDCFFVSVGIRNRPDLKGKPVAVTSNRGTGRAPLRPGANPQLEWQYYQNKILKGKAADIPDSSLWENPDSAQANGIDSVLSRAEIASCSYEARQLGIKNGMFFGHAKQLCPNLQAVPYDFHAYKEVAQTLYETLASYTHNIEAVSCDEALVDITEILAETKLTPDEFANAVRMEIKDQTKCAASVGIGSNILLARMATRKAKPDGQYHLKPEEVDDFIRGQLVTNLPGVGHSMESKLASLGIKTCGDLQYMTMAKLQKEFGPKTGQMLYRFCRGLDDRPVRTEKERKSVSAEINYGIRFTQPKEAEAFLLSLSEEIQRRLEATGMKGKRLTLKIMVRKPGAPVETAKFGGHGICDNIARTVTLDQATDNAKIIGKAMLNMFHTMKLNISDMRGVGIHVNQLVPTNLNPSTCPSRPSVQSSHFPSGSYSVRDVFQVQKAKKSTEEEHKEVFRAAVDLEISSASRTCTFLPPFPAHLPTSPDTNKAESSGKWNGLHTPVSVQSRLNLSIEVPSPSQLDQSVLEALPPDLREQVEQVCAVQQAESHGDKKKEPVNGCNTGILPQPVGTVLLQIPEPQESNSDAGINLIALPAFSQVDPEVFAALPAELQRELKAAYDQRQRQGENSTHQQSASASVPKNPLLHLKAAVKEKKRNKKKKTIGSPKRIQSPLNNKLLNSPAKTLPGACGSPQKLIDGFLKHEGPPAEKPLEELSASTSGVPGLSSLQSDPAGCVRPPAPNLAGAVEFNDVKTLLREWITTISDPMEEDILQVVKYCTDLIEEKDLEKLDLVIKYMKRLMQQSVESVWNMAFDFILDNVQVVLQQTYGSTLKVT

[19] = Tmax in CD-1 mouse at 100 mg/kg, ip by LC-MS/MS analysis; type: ADME, organism-based; settings: in vivo
[20] = Half life in CD-1 mouse at 100 mg/kg, ip by LC-MS/MS analysis; type: ADME, organism-based; settings: in vivo
[21] = MRT (infinity) in CD-1 mouse at 100 mg/kg, ip by LC-MS/MS analysis; type: ADME, organism-based; settings: in vivo
[22] = Toxicity in BALB/c nude mouse assessed as visual signs of toxicity at 30 to 100 mg/kg, po qd for 7 days; type: organism-based; settings: in vivo, 168 h, dose 30-100 mg/kg, time 7 day
[23] = Area under curve extrapolated from the last time point to infinity in CD-1 mouse at 100 mg/kg, ip by LC-MS/MS analysis; type: ADME, organism-based; settings: in vivo
[24] = test system: MEF; test: Synergistic inhibition of cologenic survival in mouse MEF cells at 10 uM incubated for 24 hrs followed by fresh media replacement without compound measured after 4 days in presence of cisplatin by crystal violet staining based analysis; type: functional, cell-based
[25] = Clearance in CD-1 mouse at 1 mg/kg, iv by LC-MS/MS analysis; type: ADME, organism-based; settings: in vivo
[26] = Toxicity in BALB/c nude mouse administered orally once daily for 7 days; settings: in vivo, route po, time 7 day
[27] = Dose normalized AUClast in CD-1 mouse at 1 mg/kg, iv by LC-MS/MS analysis; type: ADME, organism-based; settings: in vivo
[28] = Solubility of compound in PBS at pH 7.4; type: physicochemical
[29] = test system: A549; test: Inhibition of cologenic survival in human A549 cells incubated for 8 to 10 days by crystal violet staining based analysis; type: functional, cell-based; settings: time 8-10 day
[30] = Toxicity in BALB/c nude mouse assessed as effect on body weight at 30 to 100 mg/kg, po qd for 7 days; type: organism-based; settings: in vivo, 168 h, dose 30-100 mg/kg, time 7 day
[31] = Area under curve extrapolated from the last time point to infinity in CD-1 mouse at 1 mg/kg, iv by LC-MS/MS analysis; type: ADME, organism-based; settings: in vivo
[32] = Volume of distribution at steady state in CD-1 mouse at 1 mg/kg, iv by LC-MS/MS analysis; type: ADME, organism-based; settings: in vivo
[33] = Dose normalized AUClast in CD-1 mouse at 100 mg/kg, ip by LC-MS/MS analysis; type: ADME, organism-based; settings: in vivo
[34] = AUClast in CD-1 mouse at 100 mg/kg, ip by LC-MS/MS analysis; type: ADME, organism-based; settings: in vivo
[35] = Toxicity in BALB/c nude mouse assessed as decrease in animal weight at 200 mg/kg, po qd measured for 2 days; type: organism-based; settings: in vivo, 48 h, time 2 day
[36] = Oral bioavailability in CD-1 mouse at 100 mg/kg by LC-MS/MS analysis; type: ADME, organism-based; settings: in vivo

Nc1ccc(/N=N/c2cccc(F)c2F)c(N)n1
t1/2 [1]: < 2.3 min | half-life ([2]; CD-1, mouse): 20.3 min | Activity [3]: Toxic | Cmax [4]: 12500 ng/mL | inhibition [5]: Active | inhibition [6]: inactive | inhibition [7]: inactive | AUC(0-inf) [8]: 25500 ng·h/mL | intrinsic clearance (CLint) [9]: > 300 µL/min/mg | inhibition [10]: inactive | MRT inf ([11]; CD-1, mouse): 15.8 min | AUC(0-inf) [12]: 97 ng·h/mL | IC50 [13]: 0.4 µM | C0 ([14]; CD-1, mouse, read-out: C0): 412 ng/mL | AUC(0-t) [15]: 97 ng·h/mL | solubility [16]: 4.5 µM (≈ 1.12 µg/mL) | Activity [17]: Non-Toxic | Kd [18]: 21 µM | Tmax [19]: 25 min | half-life [20]: 269 min | MRT inf [21]: 124 min | Activity [22]: Non-Toxic | %AUCextra [23]: 0.58% | inhibition [24]: Active | clearance [25]: 177 mL/min/kg | MTD at 168 h [26]: ≤ 100 mg/kg | AUClast/dose [27]: 96.7 ng·h/mL | solubility [28]: 8.5 µM (≈ 2.12 µg/mL) | inhibition [29]: Active | Activity [30]: Non-Toxic | %AUCextra [31]: 0.77% | Vd ([32]; CD-1, mouse, read-out: Vdss): 2.81 L/kg | AUClast/dose [33]: 253 ng·h/mL | AUC(0-t) [34]: 25300 ng·h/mL | Activity [35]: Toxic

CC(=O)N1CCC(C(=O)NCCc2cccs2)CC1
IC50 [13]: > 100 µM

CCCc1cc(C(=O)OCC)c(NC(=O)c2ccc(O)cc2)s1
IC50 [13]: 9.3 µM

CCCc1cc(C(=O)OC)c(NC(=O)C2CCN(C(C)=O)CC2)s1
t1/2 ([2]; mouse, iv, 1 mg/kg): 16.9 min | Activity [3]: Toxic | Cmax [4]: 2780 ng/mL | AUC(0-inf) [8]: 2320 ng·h/mL | intrinsic clearance (CLint) [9]: 18.8 µL/min/mg | MRT ([11]; mouse, iv, 1 mg/kg): 13.5 min | AUC(0-inf) [12]: 38.2 ng·h/mL | IC50 [13]: 4.1 µM | C0 ([14]; mouse, iv, 1 mg/kg): 200 ng/mL | AUC(0-t) [15]: 37.3 ng·h/mL | Activity [17]: Non-Toxic | Kd [18]: 6.7 µM | Tmax [19]: 15 min | half-life [20]: 340 min | MRT inf [21]: 169 min | Activity [22]: Non-Toxic | %AUCextra [23]: 1.74% | F [36]: 60.8% | MTD at 168 h [26]: ≤ 100 mg/kg | AUClast/dose [27]: 37.3 ng·h/mL | Activity [30]: Non-Toxic | %AUCextra [31]: 2.39% | Vdss ([32]; mouse, iv, 1 mg/kg): 5.96 L/kg | AUClast/dose [33]: 22.8 ng·h/mL | AUC(0-t) [34]: 2280 ng·h/mL | Activity [35]: Toxic

CC(=O)N1CCC(C(=O)NCc2cccs2)CC1
IC50 [13]: 16.4 µM

C=CCOc1cc(OCC=C)cc(C(=O)Nc2sc(CCC)cc2C(=O)OCC)c1
IC50 [13]: 49.7 µM

CC(=O)C(C)n1c(CN2CCN(c3cccc(Cl)c3)CC2)nc2c1c(=O)n(C)c(=O)n2C (centres undefined)
t1/2 [1]: 3.4 min | intrinsic clearance (CLint) [9]: 202 µL/min/mg | solubility [16]: 45.5 µM (≈ 20.9 µg/mL) | solubility [28]: 177 µM (≈ 81.2 µg/mL)
